Test system: MC38-hPD-L1 cells
Experiment: Tumor inhibition assay in mice bearing MC38-hPD-L1 colon cancer
Type: in vivo, mouse
Details: PD-L1 antibody 3 mg/kg, intraperitoneal, Day 8 and Day 12 after inoculation
Description: MC38-hPD-L1 cells (a humanized MC38 colon cancer cell line expressing human PD-L1 protein, Shanghai Model Organisms Center, Inc.) in the logarithmic phase were collected by digestion and centrifugation, and washed with PBS twice before counting, and the cell concentration was adjusted to 2.3×10^5 cells/mL. The mice were 6-week-old SPF-grade humanized C57BL/6 mice. The right back of the mice was shaved completely with a shaver, and 100 μL of the cell suspension was aspirated with a syringe and injected subcutaneously into the back of the mice after removing bubbles. When the tumor diameter reached 4-5 mm, administration was started.
Assessment of therapeutic effect on tumor-bearing mice and antitumor effect of the compounds: tumor-bearing mice (BALB/c) were randomly divided into control group, Atezolizumab antibody group (PD-L1 antibody group), and PD-L1-KX conjugate group (Atezolizumab-conjugated compound KX) (5 mice per group). […] The tumor was measured with a vernier caliper and the survival of the mice was recorded every three days at the beginning of administration and after administration. The tumor volume was calculated by the following method: 0.5×a×b^2, wherein a is the long-axis diameter and b is the short-axis diameter. […]

Substance: Atezolizumab: PD-L1 antibody purchased from MedChemExpress (Atezolizumab, CAS number: 1380723-44-3)
- tumor volume inhibition rate (Atezolizumab as control): 67%

Source: US20260325661A1, “ANTIBODY-CONJUGATED IMMUNO-ACTIVATING SMALL MOLECULE COMPOUND, AND USE” (SHENZHEN CONJUGENIX PHARMACEUTICAL TECHNOLOGY CO., LTD, priority 2023, published 2026)
